Common to all, as to assay: In vitro competitive activity-based protein profiling (gel-based, FP-Rh or HT-01 probe)
What all share (type): biochemical

In one assay the target is T1, FAAH (Mus musculus, UniProt O08914).
T1 construct: Proteomes (mouse brain membrane fraction or cell lysates); from tissue; host or cells: mouse brain membrane fraction (or cell lysates, not specified)
T1 sequence (O08914 1-579): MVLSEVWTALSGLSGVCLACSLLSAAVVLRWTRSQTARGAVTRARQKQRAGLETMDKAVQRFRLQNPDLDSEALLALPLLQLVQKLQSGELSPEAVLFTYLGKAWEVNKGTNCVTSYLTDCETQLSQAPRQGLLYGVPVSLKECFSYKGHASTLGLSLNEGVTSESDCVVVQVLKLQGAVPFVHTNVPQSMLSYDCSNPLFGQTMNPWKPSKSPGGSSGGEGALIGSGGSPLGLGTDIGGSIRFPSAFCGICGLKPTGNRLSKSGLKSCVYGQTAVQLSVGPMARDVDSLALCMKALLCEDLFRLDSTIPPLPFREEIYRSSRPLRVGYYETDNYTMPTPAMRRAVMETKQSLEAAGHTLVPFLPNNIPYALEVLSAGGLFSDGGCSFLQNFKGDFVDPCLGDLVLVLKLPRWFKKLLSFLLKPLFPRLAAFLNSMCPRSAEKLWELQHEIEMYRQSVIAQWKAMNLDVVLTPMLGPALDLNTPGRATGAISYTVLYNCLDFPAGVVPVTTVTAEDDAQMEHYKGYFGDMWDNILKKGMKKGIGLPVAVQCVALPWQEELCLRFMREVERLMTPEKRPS
As to conditions: for inhibition at 10 µM: 10 μM inhibitor, read-out: % Inhibition at 10 μM, B = FAAH; for inhibition at 1 µM: 1 μM inhibitor, read-out: % Inhibition at 1 μM, B = FAAH; for IC50: mouse brain membrane fraction or cell lysates, 30 min preincubation at 37° C., read-out: Mouse (IC50 value, nM) FAAH. In short, it runs like this:
(§1)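 Gel-based read-out: fluorescent band intensity after SDS-PAGE reflected remaining hydrolase activity. Inhibitors were preincubated 30 min at 37° C with 1.0 mg/mL mouse brain membrane or lysate proteome before a further 30 min at 37° C with FP-Rh or HT-01 probe.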

The next assay has as its target T2, PLA2G7 (Mus musculus, UniProt Q60963).
T2 construct: Proteomes (mouse brain membrane fraction or cell lysates); from tissue; host or cells: mouse brain membrane fraction (or cell lysates, not specified)
T2 sequence (Q60963 22-440): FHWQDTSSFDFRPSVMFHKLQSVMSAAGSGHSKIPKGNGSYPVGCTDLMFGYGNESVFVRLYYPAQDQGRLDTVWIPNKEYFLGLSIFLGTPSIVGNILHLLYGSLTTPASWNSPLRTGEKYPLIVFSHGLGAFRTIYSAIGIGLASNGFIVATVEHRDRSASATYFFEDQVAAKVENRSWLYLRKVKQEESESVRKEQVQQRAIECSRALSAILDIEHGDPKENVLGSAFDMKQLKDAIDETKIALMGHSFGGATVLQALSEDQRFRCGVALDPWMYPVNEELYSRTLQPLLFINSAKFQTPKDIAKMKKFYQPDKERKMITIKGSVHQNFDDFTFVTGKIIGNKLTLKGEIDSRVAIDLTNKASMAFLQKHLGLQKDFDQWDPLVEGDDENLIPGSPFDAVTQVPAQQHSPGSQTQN
As to conditions: for inhibition at 1 µM: 1 μM inhibitor, read-out: % Inhibition at 1 μM, D = PLA2G7; for inhibition at 10 µM: 10 μM inhibitor, read-out: % Inhibition at 10 μM, D = PLA2G7; for IC50: mouse brain membrane fraction or cell lysates, 30 min preincubation at 37° C. In short, it runs like this:
as §1

In another assay the target is T3, ABHD6 (Mus musculus, UniProt Q8R2Y0).
T3 construct: Proteomes (mouse brain membrane fraction or cell lysates); from tissue; host or cells: mouse brain membrane fraction (or cell lysates, not specified)
T3 sequence (Q8R2Y0 1-336): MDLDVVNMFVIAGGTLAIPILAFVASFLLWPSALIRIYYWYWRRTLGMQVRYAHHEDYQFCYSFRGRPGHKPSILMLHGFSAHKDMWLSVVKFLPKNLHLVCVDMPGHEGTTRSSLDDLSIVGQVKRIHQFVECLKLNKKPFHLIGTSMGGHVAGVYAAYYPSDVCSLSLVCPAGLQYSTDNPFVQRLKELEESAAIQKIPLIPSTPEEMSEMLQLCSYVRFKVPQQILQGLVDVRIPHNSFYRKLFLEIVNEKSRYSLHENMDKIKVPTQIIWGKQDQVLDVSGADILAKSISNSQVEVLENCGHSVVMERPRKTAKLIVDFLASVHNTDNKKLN
As to conditions: for inhibition at 1 µM: 1 μM inhibitor, read-out: % Inhibition at 1 μM, C = ABHD6; for inhibition at 10 µM: 10 μM inhibitor, read-out: % Inhibition at 10 μM, C = ABHD6; for IC50: mouse brain membrane fraction or cell lysates, 30 min preincubation at 37° C., read-out: Mouse (IC50 value, nM) ABHD6. A digest of the protocol: as §1

The target in the next assay is T4, MAGL (Mus musculus, UniProt O35678).
T4 construct: Proteomes (mouse brain membrane fraction or cell lysates); from tissue; host or cells: mouse brain membrane fraction (or cell lysates, not specified)
T4 sequence (O35678 1-303): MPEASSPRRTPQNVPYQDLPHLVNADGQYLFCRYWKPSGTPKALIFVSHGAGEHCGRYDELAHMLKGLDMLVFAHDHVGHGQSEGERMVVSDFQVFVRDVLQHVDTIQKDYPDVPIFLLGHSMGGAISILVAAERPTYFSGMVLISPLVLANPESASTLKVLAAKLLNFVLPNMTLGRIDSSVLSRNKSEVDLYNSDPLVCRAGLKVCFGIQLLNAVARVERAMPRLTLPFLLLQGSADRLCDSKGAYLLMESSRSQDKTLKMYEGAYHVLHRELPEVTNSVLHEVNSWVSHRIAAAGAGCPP
As to conditions: for inhibition at 10 µM: 10 μM inhibitor; for inhibition at 1 µM: 1 μM inhibitor; for IC50: mouse brain membrane fraction or cell lysates, 30 min preincubation at 37° C., read-out: Mouse (IC50 value, nM) MAGL. In short, it runs like this: as §1

The record followed here is patent US10093630B2, “Pyrazole compounds and methods of making and using same” (ABIDE THERAPEUTICS, INC., priority 2014, dated 2018).

Structures are written as SMILES. Read-outs that look alike come from different tables or passages of the source.

For orientation: inhibition means the share of the control response that was lost under treatment. `O=C(c1cnn(C(=O)N2CCN(Cc3cccnc3)CC2)c1)N1CCCC1` [Example 80, (4-(Pyridin-3-ylmethyl)piperazin-1-yl)(4-(pyrrolidine-1-carbonyl)-1H-pyrazol-1-yl)methanone]: the inhibition at 10 µM at FAAH was 25 to 75%; on PLA2G7 it was greater than 75%; at ABHD6 it was greater than 75%; at MAGL, less than 25%. Besides, the results for the inhibition at 1 µM on PLA2G7 and at ABHD6 were less than 25% and 25 to 75%, respectively.
For the compound `O=C(N1CCN(Cc2ccc(OCc3ccccc3)cc2)CC1)n1cccn1` [Example 19, (4-(4-(Benzyloxy)benzyl)piperazin-1-yl)(1H-pyrazol-1-yl)methanone], the inhibition at 1 µM at FAAH was greater than 75%; at PLA2G7, less than 25%; on ABHD6 it was less than 25%; on MAGL it was 25 to 75%. In addition, the inhibition at 10 µM on FAAH was greater than 75%; at PLA2G7, less than 25%; on ABHD6, greater than 75%; at MAGL, greater than 75%.
For orientation: IC50 means the concentration needed to halve the response being measured. In the case of `O=C(N1CCN(Cc2ccccc2F)CC1)n1cc(C(F)(F)F)cn1` [Example 276, (4-(2-Fluorobenzyl)piperazin-1-yl)(4-(trifluoromethyl)-1H-pyrazol-1-yl)methanone], the inhibition at 1 µM at FAAH (gel-based competitive ABPP), on PLA2G7 (gel-based competitive ABPP), on ABHD6 (gel-based competitive ABPP) and on MAGL (gel-based competitive ABPP) was greater than 75% throughout. In addition, the IC50 on FAAH, on PLA2G7, at ABHD6 and on MAGL was less than 100 nM throughout.
Take `CC(C)(C)OC(=O)N1CCN(C(=O)n2cc(C#N)cn2)CC1` [Example 6, tert-Butyl 4-(4-cyano-1H-pyrazole-1-carbonyl)piperazine-1-carboxylate]: the inhibition at 1 µM on FAAH, on PLA2G7, on ABHD6 and on MAGL was greater than 75% throughout. Besides, the inhibition at 10 µM at FAAH, at PLA2G7, at ABHD6 and at MAGL was greater than 75% each time.
On to `O=C(N1CCN(Cc2cccc(OCc3ccccc3)c2)CC1)n1cccn1` [Example 296, (4-(3-(Benzyloxy)benzyl)piperazin-1-yl)(1H-pyrazol-1-yl)methanone], for which the inhibition at 1 µM at FAAH (gel-based competitive ABPP) is greater than 75%; on PLA2G7 (gel-based competitive ABPP) it was less than 25%; at ABHD6 (gel-based competitive ABPP), greater than 75%; at MAGL (gel-based competitive ABPP) it was greater than 75%.
With `Cc1cnn(C(=O)NCCCc2ccccc2)c1` [Example 32, 4-Methyl-N-(3-phenylpropyl)-1H-pyrazole-1-carboxamide], the inhibition at 10 µM on FAAH, on PLA2G7, on ABHD6 and at MAGL was less than 25% each time.
Consider `CC(=O)N1CCN(C(=O)n2cc(C#N)cn2)CC1` [Example 173, 1-(4-Acetylpiperazine-1-carbonyl)-1H-pyrazole-4-carbonitrile], for which the inhibition at 1 µM is less than 25% on FAAH, greater than 75% at PLA2G7, less than 25% at ABHD6 and less than 25% on MAGL. Also, the inhibition at 10 µM was less than 25% at FAAH, greater than 75% on PLA2G7, 25 to 75% at ABHD6 and 25 to 75% on MAGL.
With `Cc1cnn(C(=O)N2CCCN(S(C)(=O)=O)CC2)c1` [Example 166, (4-Methyl-1H-pyrazol-1-yl)(4-(methylsulfonyl)-1,4-diazepan-1-yl)methanone], the inhibition at 10 µM at FAAH, at PLA2G7, at ABHD6 and at MAGL was less than 25% each time.
Regarding `CC(=O)N(C)CCN(C)C(=O)n1cc(Cl)cn1` [Example 193, 4-Chloro-N-methyl-N-(2-(N-methylacetamido)ethyl)-1H-pyrazole-1-carboxamide], the inhibition at 10 µM at FAAH, at PLA2G7, on ABHD6 and at MAGL was less than 25% in each case.
On to `O=C(N1CCN(Cc2ccc(C(F)(F)F)cc2N2CCCC2)CC1)n1cc(-c2ccc(C(F)(F)F)cc2)cn1` [Example 116, (4-(2-(Pyrrolidin-1-yl)-4-(trifluoromethyl)benzyl)piperazin-1-yl)(4-(4-(trifluoromethyl)phenyl)-1H-pyrazol-1-yl)methanone], for which the inhibition at 1 µM at FAAH is less than 25%; at ABHD6, greater than 75%; at MAGL, 25 to 75%. For the same compound, the inhibition at 10 µM at FAAH is less than 25%; on PLA2G7 it was greater than 75%; on ABHD6, greater than 75%; on MAGL, greater than 75%. Moreover, the IC50 at ABHD6 is greater than 1000 nM.
In the case of `O=C(c1cnn(C(=O)N2CCN(Cc3ccc(-c4ccccc4)cc3Cl)CC2)c1)N1CCCC1` [Example 289, (4-((3-Chlorobiphenyl-4-yl)methyl)piperazin-1-yl)(4-(pyrrolidine-1-carbonyl)-1H-pyrazol-1-yl)methanone], the inhibition at 1 µM on FAAH (gel-based competitive ABPP), on PLA2G7 (gel-based competitive ABPP), on ABHD6 (gel-based competitive ABPP) and at MAGL (gel-based competitive ABPP) was greater than 75% in each case. The inhibition at 10 µM at FAAH (gel-based competitive ABPP), on PLA2G7 (gel-based competitive ABPP), on ABHD6 (gel-based competitive ABPP) and at MAGL (gel-based competitive ABPP) was greater than 75% each time.
Turning to `O=C(c1ccccc1)N1CCCN(C(=O)n2cc(C(F)(F)F)cn2)CC1` [Example 158, (4-Benzoyl-1,4-diazepan-1-yl)(4-(trifluoromethyl)-1H-pyrazol-1-yl)methanone], the inhibition at 1 µM at FAAH, at PLA2G7, on ABHD6 and at MAGL was greater than 75% in each case. Also, the inhibition at 10 µM on FAAH, on PLA2G7, on ABHD6 and at MAGL was greater than 75% each time. The IC50 on FAAH, at PLA2G7, on ABHD6 and at MAGL was greater than 1000 nM throughout.
